Assay results from paper PMC8621570, “Mechanistic Studies of Antibiotic Adjuvants Reducing Kidney’s Bacterial Loads upon Systemic Monotherapy” (Pharmaceutics, 2021).

Columns and labels:
[1] = Hydrophobicity by reversed phase HPLC elution; type: physicochemical; settings: % acetonitrile required for elution in reversed phase HPLC, C18 column; rounded to nearest whole number
12 GNB strains = type: cell-based; settings: OD measurements, mean of 12 GNB strains
Protocol: Bacteria:Escherichia coli strains: 25922 and 35218 (ATCC, Manassas, VA, USA), 14182 (clinical isolate), Ag100 and Ag100A [34] (ΔacrAB) are two K-12 isogenic mutantsand the engineered mutant ML-35p. Additional ESKAPE species tested: Klebsiella pneumoniae strains 1287 and 224 (clinical isolates), Acinetobacter baumannii ATCC strain 19606, Pseudomonas aeruginosa ATCC strains 9027 and 27853. Bacteria were grown in Luria–Bertani (LB) broth (0.5% NaCl, 0.5% yeast extract, 1% tryptone, pH = 7), except for E. coli ML-35p that was grown in tryptic-soy broth.
Peptide self-assembly was determined by static light scattering measurements as described. Hemolysis was determined by measuring hemoglobin leakage from washed human RBCs, as described. Minimal inhibitory concentration (MIC) was determined using the microdilution assay, as described. Bactericidal kinetics were determined by mixing bacteria with rifampin, OAC, or their combinations, as described. Data were obtained from three independent assays performed in duplicate.

E. coli 25922 = type: cell-based, Escherichia coli; settings: 25922, 24 h
Protocol: Sensitization to plasma components was assessed by mixing bacteria with serial two-fold OAC dilutions in 80% human plasma (Israel Blood Bank) or plasma from the specified species (Technion preclinical research authority or VetSource), as described. Data were obtained from three independent experiments.
Figure 3 Animal plasma antibacterial activities against E. coli 25922. (a) Dose-dependent reduction of colony forming units (CFU) as determined 24 h after exposure to C14(ω5)OOc10O in human plasma (80% final plasma concentration in PBS). Values represent the mean ± SD obtained from three individual plasma donors (mean inoculum was 1.6 ± 0.8 × 10^6 CFU/mL). (b) Time-kill kinetics determined upon E. coli exposure to 0, 2.5, 5, and 10 µM C14(ω5)OOc10O (from top to bottom, respectively). Values represent the mean ± SD obtained from two individual plasma samples, each subjected to two independent assays. Panels (c–f), respectively, show the OAC’s concentration-dependent activities in plasma samples obtained from pig, cat, sheep, and dog. The three dashed horizontal lines respectively represent the average CFU count of the vehicle control (upper line), the inoculum (middle line), and the limit of detection (lower line), i.e., log10 50 CFU/mL = 1.69. Green stars (*) denote lack of detectable CFU.

E. coli UPEC CFT073 = test: Urinary tract infection model; type: in vivo, mouse
Protocol: Animals: All animal studies were performed using male ICR mice (25 ± 2 gr). The Technion Animal Care and Use committee approved all procedures, care, and handling of animals. Ethics approval codes: IL0800519, IL0640421, IL0550618, IL1811217.
For efficacy assessments, three infection models were used including one with topical treatment and two with systemic treatment. • Excisional skin wound infection model: mice were anesthetized by intraperitoneal administration of a mixture of ketamine 100 mg/kg and xylazine 5 mg/kg in PBS and their backs shaved with electric clippers. The following day mice were similarly anesthetized and were administrated (S.C) 0.05 mg/kg buprenorphine (for pain relief). A 5 mm diameter piece of skin was removed from the middle of the shaved back, with sterile biopsy punch resulting in a full-thickness injury. A total of 20 µL of a mid-logarithmic culture, containing 5 × 10^6 CFU P. aeruginosa 27853 were applied on the wound. Then, 15 min after inoculation, about 50 µL of hypromellose gel (prepared as described) containing OAC, antibiotic, or their combination were applied on the skin and covered with a piece of medical tape. As a control, the vehicle (drug-free gel) was similarly applied on the skin. After a treatment period of 4 h, about 8 mm diameter of skin surrounding the infected area was removed, suspended in PBS, homogenized, serially diluted 10-fold, and plated for CFU enumeration. The number of viable bacteria was determined after overnight incubation at 37 °C. The lower limit of detection was 50 CFU/wound. • Thigh infection model (TI): mice were inoculated intramuscularly with 1 × 10^6 CFU/mouse of mid-logarithmic E. coli 25922 and treated subcutaneously 1 and 3 h after inoculation. Mice were sacrificed 24 h after infection, their thighs excised, homogenized, serially diluted 10-fold, and plated for CFU enumeration. The number of viable bacteria was determined after overnight incubation at 37 °C. […] The number of viable bacteria was determined after overnight incubation at 37 °C. […]

In the case of `CCCCC=CCCCCCCCC(=O)N[C@@H](CCCN)C(=O)N[C@@H](CCCN)C(=O)NCCCCCCCCCC(=O)N[C@@H](CCCN)C(N)=O` [C14(ω5)OOc10O], the “H, hydrophobicity” value [1] is reported as 50%, the “MIC, LB medium” value (12 GNB strains) is reported as over 50 µM and the “MIC, cat plasma” value (E. coli 25922) is reported as at least 20 µM. The “MIC, dog plasma” value (E. coli 25922) was at least 20 µM, the “MIC, human plasma” value (E. coli 25922) was 2.5 to 5 µM and the “Effect on bladder CFU counts” value (E. coli UPEC CFT073; 12.5 mg/kg S.C at 1 and 6 h post-infection, CFU at 24 h) was “not those of the bladder”. The “Reduction of kidneys' CFU counts” value (E. coli UPEC CFT073; 12.5 mg/kg S.C at 1 and 6 h post-infection, CFU at 24 h, 10 mice per group, dead control mice not included) was > 2 orders of magnitude and the “Gap of kidneys' CFU counts with the treated group” value (E. coli UPEC CFT073; as above, if the two dead PBS-treated control mice were taken into consideration) was “four”.
